# “Also recorded” adds a separate entry of the source.
# System: bacteria
# Assay: Binding of targeting peptides to microorganisms (Table 3)
# Settings: microorganism bound by the targeting peptide; binding in aqueous buffers chosen by peptide solubility, preferably 1x PBS
row,Substance,Target(s)
1,PF-317 (LILVSDI; Peptide with targeting and/or antimicrobial activity),S. mutans
2,PF-281 (SYNTYYNKLIHGQRTPDGM; Peptide with targeting and/or antimicrobial activity),S. mutans; also recorded: E. coli
3,PF-268 (EVLLSDLRPDIFSET; Peptide with targeting and/or antimicrobial activity),S. mutans
4,PF-163 (TSWLRAAERQEIGEPTKTFGEKTTSL; Peptide with targeting and/or antimicrobial activity),S. epidermidis
5,PF-242 (KLFEDPLIKSKAVENFQTTWHEQCLAKELAKNM; Peptide with targeting and/or antimicrobial activity),S. mutans; also recorded: E. coli
6,PF-193 (PPHCPPGHAKKGWC; Peptide with targeting and/or antimicrobial activity),S. epidermidis and M. luteus and E. coli and MRSA and E. faecalis and C. jejuni
7,PF-240 (RITEVPPDEHSDR; Peptide with targeting and/or antimicrobial activity),S. mutans; also recorded: E. coli
8,PF-328 (NGNEKAFSEVENLVK; Peptide with targeting and/or antimicrobial activity),S. mutans
9,PF-324 (HFSLL; Peptide with targeting and/or antimicrobial activity),C. difficile
10,PF-314 (ECLKKAIKSKALNKAFKIDVPDEVYDNLLMELEEYEK; Peptide with targeting and/or antimicrobial activity),S. mutans

# Same assay, conditions: microorganism the targeting peptide binds; binding in aqueous buffers that varied with peptide solubility, preferably 1x PBS
row,Substance,Target(s)
1,1T-249 (VFSVLKHTTWPTRKQSWHDFISILEYSAFFALVIFIFDKLLTLGLAELLKRF; Peptide with targeting and/or antimicrobial activity) [Peptide 1T-249],F. nucleatum; also recorded: S. sanguinis
2,1T-259 (EKLKKILLKLAVCGKAWYTL; Peptide with targeting and/or antimicrobial activity) [Peptide 1T-259],F. nucleatum; also recorded: P. gingivalis; also recorded: T. denticola; also recorded: S. mitis; also recorded: S. mutans; also recorded: S. oralis; also recorded: S. sanguinis
3,PF-038 (MAYKDEGKETKFAVKGYKD; Peptide with targeting and/or antimicrobial activity),M. luteus
4,1T-304 (STAGEASRRTASEASRRTAAKLRG; Peptide with targeting and/or antimicrobial activity) [Peptide 1T-304],P. gingivalis

# Same assay, conditions: peptide binding in aqueous buffers that varied depending on peptide solubility; preferably 1x PBS
Substance,Target(s) (microorganisms bound by the targeting peptide),Target(s) (microorganism bound by the targeting peptide)
PF-402 (FIDVLKSKINEFLN; Peptide with targeting and/or antimicrobial activity),S. epidermidis; also recorded: P. aeruginosa; also recorded: E. faecalis; also recorded: C. jejuni,
PF-C259 (AEIQPHCLSVL; Peptide with targeting and/or antimicrobial activity),,F. nucleatum; also recorded: S. mutans
PF-703 (MTTVDNIVGLVIAVALMAFLFAALLFPEKF; Peptide with targeting and/or antimicrobial activity),,Mycobacteria spp
PF-C034 (HPMPITVRSRKPGPLTAPSEH; Peptide with targeting and/or antimicrobial activity),,S. mutans; also recorded: E. coli
PF-800 (WYYFDNNGYM; Peptide with targeting and/or antimicrobial activity),,S. mutans
PF-705 (GEEEGTVAD; Peptide with targeting and/or antimicrobial activity),,S. mutans; also recorded: E. coli
PF-794 (NLYFENQGN; Peptide with targeting and/or antimicrobial activity),,S. mutans
PF-498 (MSEEEEVSEKVYNYLRRNEFFEVRKEEFSA; Peptide with targeting and/or antimicrobial activity),S. mutans; also recorded: E. coli,
PF-570 (KKFPTEESHIQAVLEFKKLTEHPSG; Peptide with targeting and/or antimicrobial activity),S. pneumoniae; also recorded: C. jeikeium,
PF-790 (PAGPDHLDQRDHR; Peptide with targeting and/or antimicrobial activity),,Mycobacteria spp.
PF-787 (MTERQRRALLKQHPEVVSWSDYLEKRKRRTGTAG; Peptide with targeting and/or antimicrobial activity),,Mycobacteria spp.
PF-678 (RDRRWTRRDMYDWLESARV; Peptide with targeting and/or antimicrobial activity),,Mycobacteria spp
PF-509 (EAKVQAKGEQIACNNY; Peptide with targeting and/or antimicrobial activity),S. mutans; also recorded: B. subtilis; also recorded: E. coli,
PF-C068 (LNLFASI; Peptide with targeting and/or antimicrobial activity),,A. naeslundii; also recorded: F. nucleatum; also recorded: S. mutans
PF-751 (AESSPAQETT; Peptide with targeting and/or antimicrobial activity),,S. epidermidis; also recorded: E. coli; also recorded: C. albicans; also recorded: C. jeikeium
PF-494 (FTEPLRPLQAKGQIISIKPSTSSS; Peptide with targeting and/or antimicrobial activity),S. mutans,
PF-773 (TLKESK; Peptide with targeting and/or antimicrobial activity),,S. epidermidis; also recorded: C. albicans; also recorded: C. jeikeium
PF-488 (YPNEQGHHKNNLKNIIIE; Peptide with targeting and/or antimicrobial activity),S. mutans; also recorded: E. coli,

# Same assay, conditions: peptide binding in aqueous buffers varied by peptide solubility; preferably 1x PBS
row,Substance,Target(s) (microorganism bound by the targeting peptide)
1,1T-10 (SPAGLPGDGDEA; Peptide with targeting and/or antimicrobial activity) [Peptide 1T-10],M. xanthus
2,1T-59 (AVGNNLGKDNDSGHRGKKHRKHKHR; Peptide with targeting and/or antimicrobial activity) [Peptide 1T-59],S. aureus; also recorded: S. epidermidis; also recorded: P. aeruginosa
3,1T-119 (SPATQKAPTRAQPSRAPVQDCGDGRPTAAPDDVERLSPR; Peptide with targeting and/or antimicrobial activity) [Peptide 1T-119],S. gordonii; also recorded: S. mitis; also recorded: S. mutans; also recorded: S. oralis
4,1T-117 (GPGVVGPAPFSRLPAHALNL; Peptide with targeting and/or antimicrobial activity) [Peptide 1T-117],S. mutans
5,1T-74 (DIDWGRKISCAAGVAYGAIDGCATTV; Peptide with targeting and/or antimicrobial activity) [Peptide 1T-74],S. pneumoniae

# Source: US9597407B2, “Targeted antimicrobial moieties” (C3 Jian, Inc., priority 2009, dated 2017)
